Assay in all cases: Ames mutagenicity test (back mutation)
What all share (assay type): cell-based
Design in all cases: key: -: no back mutation; (+): slight back mutuation; +: increasing back mutation; ++: increasing back mutation
In general terms: The Ames test uses bacterial strains that need an amino acid and regain growth without it when mutated back.

For series [1], the system named is Salmonella thyphimurium strain TA 100. The text has this: (§1) Salmonella thyphimurium strains
(§2) without (-) and with (+) S9 - Mix

Series [2] deals with Salmonella thyphimurium strain TA 97.
Excerpt: as §1, §2

The test system of series [3] is Salmonella thyphimurium strain TA 98.
Excerpt: as §1, §2

On to 2,4-diaminotrifluoroethoxybenzene, for which the “Ames test result, TA 100” value in series [1] (with (+) S9-Mix) was “(+)”; in series [1] (without (-) S9-Mix), “-”. Moreover, the “Ames test result, TA 97” value in series [2] (with (+) S9-Mix) and in series [2] (without (-) S9-Mix) was “-” in each case. In addition, the “Ames test result, TA 98” value in series [3] (with (+) S9-Mix) is “++”; in series [3] (without (-) S9-Mix) it was “-”.

In the case of `Cc1cc(OC(F)(F)C(F)F)c(N)cc1N` [2,4-diamino-5-tetrafluoroethoxy-toluene, 2,4-diamino-5-tetrafluoroethoxytoluene], the “Ames test result, TA 100” value in series [1] (with (+) S9-Mix) and in series [1] (without (-) S9-Mix) was “-” throughout. The “Ames test result, TA 97” value in series [2] (with (+) S9-Mix) and in series [2] (without (-) S9-Mix) was “-” each time. For the same compound, the “Ames test result, TA 98” value in series [3] (with (+) S9-Mix) and in series [3] (without (-) S9-Mix) was “-” throughout.

For the compound `COc1ccc(N)cc1N` [2,4-diaminoanisol], the “Ames test result, TA 100” value in series [1] (with (+) S9-Mix) is “(+)”; in series [1] (without (-) S9-Mix), “-”. For the same compound, the figures for the “Ames test result, TA 97” value in series [2] (with (+) S9-Mix) and in series [2] (without (-) S9-Mix) were “+” and “-”, respectively. In addition, the “Ames test result, TA 98” value was “++” in series [3] (with (+) S9-Mix) and “-” in series [3] (without (-) S9-Mix).

As to `CCOc1ccc(N)cc1N` [2,4-diaminophenetol], the “Ames test result, TA 100” value in series [1] (with (+) S9-Mix) and in series [1] (without (-) S9-Mix) was “-” each time. In addition, the “Ames test result, TA 97” value in series [2] (with (+) S9-Mix) is on record as “+”; in series [2] (without (-) S9-Mix), “-”. The “Ames test result, TA 98” value is listed as “++” in series [3] (with (+) S9-Mix) and “-” in series [3] (without (-) S9-Mix).

On to `Nc1ccc(OC(F)(F)C(F)F)c(N)c1` [2,4-diaminotetrafluoroethoxybenzene], for which the “Ames test result, TA 100” value in series [1] (with (+) S9-Mix) and in series [1] (without (-) S9-Mix) was “-” in each case. Further, the entries for the “Ames test result, TA 97” value in series [2] (with (+) S9-Mix) and in series [2] (without (-) S9-Mix) were “(+)” and “-”, respectively. Moreover, the “Ames test result, TA 98” value in series [3] (with (+) S9-Mix) was “+”; in series [3] (without (-) S9-Mix), “-”.

The record behind these values is patent US4845294A, “Diaminotetrafluoroethoxybenzenes” (Wella Aktiengesellschaft, priority 1984, dated 1989).
